Target: T1, PD-1/PD-L1 protein/protein interaction (Homo sapiens, UniProt Q9NZQ7)
T1 construct: Recombinant human PD-L1 protein (19-238) with a His-tag at the C-terminus; purchased AcroBiosystems PD1-H5229 (PD-L1-His); PD1-H5257 (PD-1-Fc)
Assay: PD-1/PD-L1 Homogeneous Time-Resolved Fluorescence (HTRF) Binding Assay
Details: recombinant human PD-L1 (19-238) His-tag and human PD-1 (25-167) Fc tag; 25° C., PBS pH 7.4
Procedure: Example A. PD-1/PD-L1 Homogeneous Time-Resolved Fluorescence (HTRF) Binding Assay
The assays were conducted in a standard black 384-well polystyrene plate with a final volume of 20 μL. Inhibitors were first serially diluted in DMSO and then added to the plate wells before the addition of other reaction components. The final concentration of DMSO in the assay was 1%. The assays were carried out at 25° C. in the PBS buffer (pH 7.4) with 0.05% Tween-20 and 0.1% BSA. Recombinant human PD-L1 protein (19-238) with a His-tag at the C-terminus was purchased from AcroBiosystems (PD1-H5229). Recombinant human PD-1 protein (25-167) with Fc tag at the C-terminus was also purchased from AcroBiosystems (PD1-H5257). PD-L1 and PD-1 proteins were diluted in the assay buffer and 10 μL was added to the plate well. Plates were centrifuged and proteins were preincubated with inhibitors for 40 minutes. The incubation was followed by the addition of […] of HTRF detection buffer supplemented with Europium cryptate-labeled anti-human IgG (PerkinElmer-AD0212) specific for Fc and anti-His antibody conjugated to SureLight®-Allophycocyanin (APC, PerkinElmer-AD0059H). After centrifugation, the plate was incubated at 25° C. for 60 min. before reading on a PHERAstar FS plate reader (665 nm/620 nm ratio). Final concentrations in the assay were […] PD1, 10 nM PD-L1, 1 nM europium anti-human IgG and 20 nM anti-His-Allophycocyanin. IC50 determination was performed by fitting the curve of percent control activity versus the log of the inhibitor concentration using the GraphPad Prism 5.0 software.

T1 sequence (Q9NZQ7 19-238): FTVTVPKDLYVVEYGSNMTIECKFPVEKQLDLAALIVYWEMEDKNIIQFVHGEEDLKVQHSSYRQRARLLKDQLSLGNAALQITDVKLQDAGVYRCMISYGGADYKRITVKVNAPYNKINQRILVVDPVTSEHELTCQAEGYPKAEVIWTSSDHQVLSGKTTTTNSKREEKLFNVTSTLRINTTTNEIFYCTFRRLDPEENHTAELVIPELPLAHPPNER

| IC50 [nM] | Compound |
| --- | --- |
| 10 to 100 | Cc1c(NC(=O)c2ncc(CNCCO)cn2)cccc1-c1ccccc1 [Example 6, 5-{[(2-hydroxyethyl)amino]methyl}-N-(2-methylbiphenyl-3-yl)pyrimidine-2-carboxamide] |
| 100 to 1000 | CC(C)(C)OC(=O)N1CCC=C(c2cccc(NC(=O)c3ccc(CNCCO)cn3)c2C#N)C1 [Example 40, tert-butyl 5-(2-cyano-3-{[(5-{[(2-hydroxyethyl)amino]methyl}pyridin-2-yl)carbonyl]amino}phenyl)-3,6-dihydropyridine-1(2H)-carboxylate] |
| 10 to 100 | N#Cc1c(NC(=O)c2ccc(CNCCO)cn2)cccc1C1CCCCC1 [Example 41, N-(2-cyano-3-cyclohexylphenyl)-5-{[(2-hydroxyethyl)amino]methyl}pyridine-2-carboxamide] |
| 10 to 100 | Cc1c(NC(=O)c2ccc(CNCCO)nn2)cccc1-c1ccccc1 [Example 12, 6-{[(2-hydroxyethyl)amino]methyl}-N-(2-methylbiphenyl-3-yl)pyridazine-3-carboxamide] |
| 100 to 1000 | CN1CCOc2cc(-c3cccc(NC(=O)c4ccc(CNCCO)cn4)c3C#N)ccc21 [Example 46, N-[2-cyano-3-(4-methyl-3,4-dihydro-2H-1,4-benzoxazin-7-yl)phenyl]-5-{[(2-hydroxyethyl)amino]methyl}pyridine-2-carboxamide] |
| 100 to 1000 | Cc1c(NC(=O)c2ncccn2)cccc1-c1ccccc1 [Example 28, N-(2-methylbiphenyl-3-yl)pyrimidine-2-carboxamide] |
| 10 to 100 | Cc1cc(CNCCO)cnc1C(=O)Nc1cccc(-c2ccccc2)c1C [Example 4, 5-{[(2-hydroxyethyl)amino]methyl}-3-methyl-N-(2-methylbiphenyl-3-yl)pyridine-2-carboxamide] |
| 100 to 1000 | Cc1cc(CN2CCCC[C@H]2C(=O)O)cnc1C(=O)Nc1cccc(-c2ccccc2)c1C [Example 3, (2S)-1-[(5-methyl-6-{[(2-methylbiphenyl-3-yl)amino]carbonyl}pyridin-3-yl)methyl]piperidine-2-carboxylic Acid] |
| 10 to 100 | Cc1c(NC(=O)c2cc(OCc3cccnc3)c(CNCCO)cn2)cccc1-c1ccccc1 [Example 19, 5-{[(2-hydroxyethyl)amino]methyl}-N-(2-methylbiphenyl-3-yl)-4-(pyridin-3-ylmethoxy)pyridine-2-carboxamide] |
| ≤ 10 | N#Cc1c(NC(=O)c2ccc(CNCCO)cn2)cccc1-c1ccccc1 [Example 8, N-(2-cyanobiphenyl-3-yl)-5-{[(2-hydroxyethyl)amino]methyl}pyridine-2-carboxamide] |
| 100 to 1000 | Cc1c(NC(=O)c2cccnn2)cccc1-c1ccccc1 [Example 29, N-(2-methylbiphenyl-3-yl)pyridazine-3-carboxamide] |
| 10 to 100 | Cc1c(NC(=O)c2ccc(CN3CCCC[C@H]3C(=O)O)cn2)cccc1-c1ccccc1 [Example 1, (2S)-1-[(6-{[(2-methylbiphenyl-3-yl)amino]carbonyl}pyridin-3-yl)methyl]piperidine-2-carboxylic Acid] |
| ≤ 10 | Cc1c(NC(=O)c2ccc(CNCCO)cn2)cc(F)cc1-c1ccc2c(c1)OCCO2 [Example 45, N-[3-(2,3-dihydro-1,4-benzodioxin-6-yl)-5-fluoro-2-methylphenyl]-5-{[(2-hydroxyethyl)amino]methyl}pyridine-2-carboxamide] |

Source: US12516044B2, “Heterocyclic compounds as immunomodulators” (Incyte Corporation, priority 2015, dated 2026)
